Values of other authors, collected in PMC6311893, “Computational prediction of plasma protein binding of cyclic peptides from small molecule experimental data using sparse modeling techniques” (BMC Bioinformatics, 2018).

Tested on: plasma protein
Details: fraction bound to plasma protein; small molecule dataset, sheet 1-SM (Set Dte = test, Dtr = training); ref Ingle et al.; cited from earlier work

In order of rising “PPB (fb)” value:
1. Cc1ncc([N+](=O)[O-])n1CCO [Metronidazole]  0.07
2. Cc1c(N(C)C)c(=O)n(-c2ccccc2)n1C [amidopyrine]  0.3
3. C[C@@H]1CCC[C@H](C)N1NC(=O)c1ccc(Cl)c(S(N)(=O)=O)c1 [clopamide]  0.5
4. O=C(O)c1cn(-c2cccc(F)c2)c2cc(N3CCNCC3)c(F)cc2c1=O [2b(m-F)]  0.51
5. O=C(O)c1cn(-c2cccc([N+](=O)[O-])c2)c2cc(N3CCNCC3)c(F)cc2c1=O [7b(m-NO2)]  0.66
6. CN(C)CCOC1=Cc2ccccc2Sc2ccc(Cl)cc21 [zotepine]  0.97
7. O=C(O)C1=C(CSc2nnnn2CS(=O)(=O)O)CS[C@@H]2[C@H](NC(=O)[C@H](O)c3ccccc3)C(=O)N12 [cefonicid]  0.98

Same assay, conditions: fraction bound to plasma protein; small molecule dataset, sheet 1-SM, Set Dtr; ref Ingle et al.; cited from earlier work

In order of falling “PPB (fb)” value:
1. Cc1ccc(C(=O)c2ccc(CC(=O)O)n2C)cc1 [tolmetin]  0.99
2. Cc1ccc(-c2ncc(Cl)cc2-c2ccc(S(C)(=O)=O)cc2)cn1 [Etoricoxib]  0.92
3. Cc1ccc(/C(=C\CN2CCCC2)c2ccccn2)cc1 [triprolidine]  0.9
4. CC(C)N(CCC(C(N)=O)(c1ccccc1)c1ccccn1)C(C)C (stereo not drawn) [Disopyramide]  0.87
5. O=C1CN(/N=C/c2ccc([N+](=O)[O-])o2)C(=O)N1 [Nitrofurantoin]  0.73
6. CC1(C)S[C@@H]2[C@H](NC(=O)Cc3ccccc3)C(=O)N2[C@H]1C(=O)O [Penicillin G]  0.62
7. N=C(N)c1ccc(CNC(=O)[C@@H]2CCN2C(=O)[C@H](NCC(=O)O)C2CCCCC2)cc1 [Melagatran]  0.07
8. CCC(O)(C(=O)O)c1cc2n(c(=O)c1CO)Cc1cc3c(CN(C)C)c(O)ccc3nc1-2 (stereo not drawn) [Topotecan Carboxylic Acid]  0.07
9. NCCCC[C@H](N[C@@H](CCc1ccccc1)C(=O)O)C(=O)N1CCC[C@H]1C(=O)O [Lisinopril]  0.05
10. CC(=O)Nc1c(I)c(C(=O)O)c(I)c(N(C)C(C)=O)c1I [Metrizoate]  0

Same assay, conditions: fraction bound to plasma protein; small molecule dataset, sheet 1-SM; ref Ingle et al.; cited from earlier work

In order of falling “PPB (fb)” value:
1. O=C1Nc2ccc(Cl)cc2[C@@](C#CC2CC2)(C(F)(F)F)O1 [efavirenz]  0.99
2. CC(C(=O)O)c1ccc(C(=O)c2ccccc2)s1 (stereo not drawn) [tiaprofenic acid]  0.98
3. CC1(C)SC2C(NC(=O)c3ccc4ccccc4c3)C(=O)N2C1C(=O)O (stereo not drawn) [penicillin65]  0.96
4. CCC(=O)O[C@@H](O[P@](=O)(CCCCc1ccccc1)CC(=O)N1C[C@H](C2CCCCC2)C[C@H]1C(=O)O)C(C)C [fosinopril]  0.95
5. Cc1ccnc(NS(=O)(=O)c2ccc(N)cc2)n1 [sulfamerazine]  0.85
6. COc1ccc2ccccc2c1C(=O)NC1C(=O)N2C1SC(C)(C)C2C(=O)O (stereo not drawn) [penicillin67]  0.8
7. CCN1CCC[C@H]1CNC(=O)c1c(OC)ccc(Br)c1OC [Remoxipride]  0.79
8. CC[C@H]1OC(=O)[C@H](C)C(=O)[C@H](C)[C@@H](O[C@@H]2O[C@H](C)C[C@H](N(C)C)[C@H]2O)[C@](C)(OC)C[C@@H](C)C(=O)[C@H](C)[C@H]2N(CCCCn3cnc(-c4cccnc4)c3)C(=O)O[C@]12C [Telithromycin]  0.59
9. CC1CCN(CCCC(=O)c2ccc(F)cc2)CC1 [melperone]  0.5
10. CCn1cc(C(=O)O)c(=O)c2cc(F)c(N3CCNCC3)cc21 [norfloxacin]  0.15
11. CC(=O)N[C@H]1[C@H]([C@H](O)[C@H](O)CO)OC(C(=O)O)=C[C@@H]1N=C(N)N [Zanamivir]  0.09

Same assay, conditions: plasma; cited from earlier work

In order of falling “PPB (fb)” value:
1. nitazoxanide  0.99
2. C[C@@H]1O[C@@H](O[C@@H]2C=C3CC[C@@H]4[C@H](CC[C@]5(C)[C@@H](c6ccc(=O)oc6)CC[C@]45O)[C@@]3(C)CC2)[C@H](O)[C@H](O)[C@H]1O [proscillaridin]  0.85
3. O=C1CN=C(c2ccccn2)c2cc(Br)ccc2N1 [Bromazepam]  0.61
4. CCOC(=O)C1(c2ccccc2)CCN(C)CC1 [Meperidine]  0.58
5. CC(=O)NCCCS(=O)(=O)O [acamprosate]  0.03
